# Experimental data from publication PMC7265429, “Characterization of a new small-molecule inhibitor of HDAC6 in glioblastoma” (Cell Death & Disease, 2020).
# System: GNS166 cells
# Assay: Microarray whole-transcriptome gene expression analysis
# Assay type: cell-based, human
# Conditions: 5 µM SAHA vs DMSO
# Description: Whole-transcriptome analysis was performed from 300 ng of RNA using HuGene-2_0-st-v1 expression array (Affymetrix), which covers 48,226 transcripts. Raw data were first checked for quality purposes through the Affymetrix® Expression Console™ Software v1.4.1 and TAC software v4.0. Then, data were normalized using the Robust Multi-array Average (RMA) and analyzed by Limma tool. Probesets with FDR-corrected p-values smaller than 0.05 were selected. Functional enrichment on Gene Ontology (GO) biological processes was performed on a smaller subset of the differentially expressed genes (corrected p-value < 0.001) by means of Broad Institute GSEA. […] The data that support this study have been deposited in NCBI´s Gene Expression Omnibus and are accessible through GEO series accession number GSE143887.
structure (smiles),measurement,setting,value
"O=C(CCCCCCC(=O)Nc1ccccc1)NO [SAHA, Suberoylanilide hydroxamic acid]",logFC C4orf32,transcript TC0400008424.hg.1,1.313
same,logFC USP53,transcript TC0400008557.hg.1,1.38
same,logFC SPRY1,transcript TC0400008628.hg.1,1.671
same,logFC PCDH10,transcript TC0400008725.hg.1,3.614
same,logFC LRAT,transcript TC0400009068.hg.1,2.43
same,logFC GUCY1B3,transcript TC0400009088.hg.1,2.131
same,logFC GRIA2,transcript TC0400009110.hg.1,2.789
same,logFC WDR17,transcript TC0400009376.hg.1,2.897
same,logFC TLR10,transcript TC0400010449.hg.1,2.282
same,logFC TEC,transcript TC0400010618.hg.1,1.822
same,logFC SPINK2,transcript TC0400010780.hg.1,1.664
same,logFC PAQR3,transcript TC0400011130.hg.1,1.64
same,logFC HPSE,transcript TC0400011203.hg.1,1.993
same,logFC ABCG2,transcript TC0400011279.hg.1,2.81
same,logFC NDNF,transcript TC0400011732.hg.1,1.962
same,logFC CBR4,transcript TC0400012375.hg.1,2.0355
same,logFC CCDC110,transcript TC0400012640.hg.1,2.964
same,logFC STIM2,transcript TC0400012781.hg.1,2.698
same,logFC STIM2,transcript TC0400012782.hg.1,1.4133
same,logFC TMEM144,transcript TC0400012854.hg.1,1.56
same,logFC MFAP3L,transcript TC0400012992.hg.1,1.287
same,logFC ROPN1L,transcript TC0500006744.hg.1,1.559
same,logFC CDH6,transcript TC0500007044.hg.1,1.462
same,logFC HEXB,transcript TC0500007792.hg.1,1.236
same,logFC ADGRV1,transcript TC0500008055.hg.1,1.802
same,logFC C5orf30,transcript TC0500008233.hg.1,1.583
same,logFC ACTBL2,transcript TC0500010822.hg.1,3.506
same,logFC SGTB,transcript TC0500010932.hg.1,1.8638
same,logFC MEF2C,transcript TC0500011418.hg.1,3.2962
same,logFC PCSK1,transcript TC0500011513.hg.1,2.7195
same,logFC ST8SIA4,transcript TC0500011579.hg.1,2.463
same,logFC NREP,transcript TC0500011705.hg.1,1.704
same,logFC SEMA6A,transcript TC0500011775.hg.1,1.39
same,logFC MARCH3,transcript TC0500011935.hg.1,1.4429
same,logFC BASP1,transcript TC0500013155.hg.1,2.0101
same,logFC BMP6,transcript TC0600006873.hg.1,2.494
same,logFC CD83,transcript TC0600007012.hg.1,1.54
same,logFC SLC25A27,transcript TC0600008166.hg.1,2.967
same,logFC TMEM14A,transcript TC0600008262.hg.1,1.194
same,logFC OGFRL1,transcript TC0600008486.hg.1,1.1708
same,logFC TPD52L1,transcript TC0600009353.hg.1,1.7761
same,logFC KIAA0319,transcript TC0600011065.hg.1,1.327
same,logFC GSTA4,transcript TC0600012059.hg.1,1.152
same,logFC ELOVL4,transcript TC0600012379.hg.1,1.597
same,logFC GPR63,transcript TC0600012625.hg.1,1.5628
same,logFC CTGF,transcript TC0600013186.hg.1,1.2152
same,logFC SGK1,transcript TC0600013231.hg.1,2.01
same,logFC CITED2,transcript TC0600013361.hg.1,1.453
same,logFC MICA,transcript TC0600014101.hg.1,1.308
same,logFC TBC1D7,transcript TC0600014241.hg.1,1.745
same,logFC GCLC,transcript TC0600014300.hg.1,1.594
same,logFC SCIN,transcript TC0700006735.hg.1,1.966
same,logFC TSPAN13,transcript TC0700006783.hg.1,2.267
same,logFC RUNDC3B,transcript TC0700008261.hg.1,2.108
same,logFC PEG10,transcript TC0700008367.hg.1,1.87
same,logFC SDHAF3,transcript TC0700008430.hg.1,2.085
same,logFC CPED1,transcript TC0700008928.hg.1,1.813
same,logFC FKBP14,transcript TC0700010621.hg.1,1.44
same,logFC IGFBP3,transcript TC0700010965.hg.1,3.673
same,logFC PCLO,transcript TC0700011655.hg.1,1.736
same,logFC TFPI2,transcript TC0700011809.hg.1,1.387
same,logFC DOCK4,transcript TC0700012276.hg.1,2.262
same,logFC KCNH2,transcript TC0700013050.hg.1,1.762
same,logFC DOCK5,transcript TC0800007057.hg.1,2.096
same,logFC CHCHD7,transcript TC0800007697.hg.1,1.373
same,logFC GDAP1,transcript TC0800007985.hg.1,1.791
same,logFC STMN2,transcript TC0800008044.hg.1,3.942
same,logFC CA3,transcript TC0800008124.hg.1,3.677
same,logFC CA2,transcript TC0800008126.hg.1,1.801
same,logFC STC1,transcript TC0800009891.hg.1,3.859
same,logFC TEX15,transcript TC0800010045.hg.1,3.073
same,logFC ZMAT4,transcript TC0800010224.hg.1,2.513
same,logFC ENPP2,transcript TC0800011620.hg.1,1.943
same,logFC FBXO16,transcript TC0800012396.hg.1,1.919
same,logFC SLC1A1,transcript TC0900006522.hg.1,1.427
same,logFC CD274,transcript TC0900006559.hg.1,1.67
same,logFC ZNF483,transcript TC0900008425.hg.1,1.1693
same,logFC OLFM1,transcript TC0900009145.hg.1,2.218
same,logFC MLLT3,transcript TC0900009673.hg.1,1.64
same,logFC NMRK1,transcript TC0900010445.hg.1,1.539
same,logFC DIRAS2,transcript TC0900010737.hg.1,1.619
same,logFC CTSV,transcript TC0900010933.hg.1,2.165
same,logFC MEGF9,transcript TC0900011379.hg.1,1.37
same,logFC PHYHIPL,transcript TC1000007714.hg.1,2.12
same,logFC SFR1,transcript TC1000008798.hg.1,1.8477
same,logFC VIM-AS1,transcript TC1000009920.hg.1,1.211
same,logFC DNAJC12,transcript TC1000010827.hg.1,2.378
same,logFC CPEB3,transcript TC1000011420.hg.1,1.535
same,logFC MPP7,transcript TC1000012536.hg.1,1.855
